From PubChem BioAssay (NCI)
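Five compound concentrations were applied to cells in 96-well plates for 48 hours; endpoints were derived by simple linear interpolation of the resulting dose-response curve. Here, GI50 denotes the concentration required for 50% inhibition of growth. Definition used: TGI = concentration required for complete inhibition of growth.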

Columns and labels:
Test in all cases: NCI tumour cell line growth inhibition, 48 h
ACHN renal = system: ACHN renal
IGROV1 ovarian = system: IGROV1 ovarian
M14 melanoma = system: M14 melanoma
MALME-3M melanoma = system: MALME-3M melanoma
MOLT-4 leukemia = system: MOLT-4 leukemia
NCI-H226 lung = system: NCI-H226 lung
NCI-H522 lung = system: NCI-H522 lung
SF-295 CNS = system: SF-295 CNS
SR leukemia = system: SR leukemia
RXF 393 renal = system: RXF 393 renal

Compound	GI50 (ACHN renal) [µM]	TGI (ACHN renal) [µM]	GI50 (IGROV1 ovarian) [µM]	TGI (IGROV1 ovarian) [µM]	GI50 (M14 melanoma) [µM]	GI50 (MALME-3M melanoma) [µM]	TGI (MALME-3M melanoma) [µM]	GI50 (MOLT-4 leukemia) [µM]	TGI (MOLT-4 leukemia) [µM]	GI50 (NCI-H226 lung) [µM]	TGI (NCI-H226 lung) [µM]	GI50 (NCI-H522 lung) [µM]	TGI (NCI-H522 lung) [µM]	GI50 (SF-295 CNS) [µM]	TGI (SF-295 CNS) [µM]	GI50 (SR leukemia) [µM]	TGI (SR leukemia) [µM]	TGI (M14 melanoma) [µM]	GI50 (RXF 393 renal) [µM]	TGI (RXF 393 renal) [µM]
CCN(CC)c1ccc2nc3c4ccccc4c(=NC(=O)c4ccccc4-c4c5ccc(N(CC)CC)cc5[o+]c5cc(N(CC)CC)ccc45)cc-3oc2c1	3.97	13.7	2.41	7.49	2.47	2.92	10.2	1.81	> 100	15.4	38.8	3.14	21.9	2.96	14.2	2.74	20.5	–	–	–
COc1cnc2c(c1)C(=O)c1c-2n(CCCN2CCN(CCO)CC2)c(=O)c2cc([N+](=O)[O-])ccc12	0.738	15.9	–	–	0.769	1.56	3.33	0.552	4.45	0.964	20	0.499	2.89	0.533	2.05	–	–	2.49	4.68	20.4
CC(C)N(C[C@H]1O[C@@H](n2cnc3c(N)ncnc32)[C@H](O)[C@@H]1O)C1CC(CCc2nc3ccc(C(C)(C)C)cc3[nH]2)C1 (stereo partly drawn)	> 100	> 100	> 72.4	> 100	> 72.2	20	> 60.8	30.9	> 81.3	> 100	> 100	> 75.9	> 100	> 70.8	> 100	–	–	> 100	21.2	> 100
NC(=O)CCC(NC(=O)C(F)(F)F)C(=O)O (stereo not drawn)	–	> 100	–	> 100	–	–	> 100	–	> 100	–	> 100	–	> 100	–	> 100	–	–	> 100	–	> 100
CC12C(=O)N(CCN)C(=O)C1C1c3ccccc3C2c2ccccc21 (stereo not drawn)	–	> 100	–	> 100	–	–	> 100	–	> 100	–	> 100	–	> 100	–	> 100	–	–	> 100	–	–
C[C@]12CCCC(=O)C1C[C@H](C(=O)O)CC2 (stereo partly drawn)	–	> 100	–	> 100	–	–	> 100	–	> 100	–	> 100	–	> 100	–	> 100	–	> 100	> 100	–	–
Cc1cccc(N=C2NC(=O)C(CC(=O)Nc3ccc(Cl)cc3C)S2)c1 (stereo not drawn)	–	> 100	–	> 100	–	–	> 100	–	> 100	–	> 100	–	> 100	–	> 100	–	–	> 100	–	> 100
CCNCCNc1cc(-c2cccc(C(F)(F)F)c2)c(C#N)c2nc3ccccc3n12	1.32	2.9	1.72	3.49	1.71	1.64	3.29	–	–	1.64	3.64	1.86	3.46	1.79	3.39	–	–	3.25	1.49	3.1
Cc1ccc(-c2cc(/C=N/O)on2)cc1	54.8	> 100	63.8	> 100	65.4	> 100	> 100	21.9	> 100	36.2	> 100	62.4	> 100	33.9	> 100	–	–	> 100	> 100	> 100
C=C1CO[C@@H]2C[C@@H]1CC/C(C)=C/CC/C(C)=C/CC[C@@]2(C)O	18.8	34	3.96	28.8	17.9	–	–	1.26	12.4	–	–	21.1	45.2	19.6	41.7	1.71	12.8	32.9	20	39.3
Cc1cc(=O)[nH]c(CNC(=O)Cc2ccccc2)n1	–	> 100	–	> 100	–	–	> 100	–	> 100	–	> 100	–	> 100	–	> 100	–	–	> 100	–	> 100
NC(=O)NC(=O)C1CCCCC1C(=O)O (stereo not drawn)	–	> 100	–	> 100	–	–	> 100	–	–	–	> 100	–	> 100	–	> 100	–	–	> 100	–	> 100
CS[C@@]1(C(=O)Nc2ccc3[nH]nc(-c4ccc(OC(C)C)nc4)c3c2)CCN(CC(=O)N2CC=C(c3ccc(-c4ncn(C)n4)cc3)CC2)C1	37.8	> 100	0.271	> 100	0.032	0.0155	0.105	5.26	> 100	> 100	> 100	> 51.2	> 100	> 27.3	> 100	4.35	63.6	–	–	–
CP(C)C.[Ag][I]	–	> 100	–	> 100	–	–	> 100	–	> 100	–	> 100	–	–	–	> 100	–	> 100	> 100	–	> 100
N#Cc1ccccc1Nc1ccccc1S	–	> 100	–	71.2	–	–	80.3	–	33.1	–	43.9	–	–	–	65.4	–	> 100	–	–	53
COC(=O)C1=Cc2c(OC)cc(OC)c(OC)c2[C@H](c2cc(OC)c(OC)cc2OC)C1C(=O)OC (stereo partly drawn)	–	> 100	–	> 100	–	–	> 100	–	> 100	–	> 100	–	> 100	–	> 100	–	–	> 100	–	> 100
Cc1cc2nc3c4ccccc4n(CCN(C)C)c3nc2cc1C	0.555	11.3	1.28	10.2	1.51	1.41	2.74	0.555	9.9	2.01	6.99	0.673	3.24	1.39	9.84	–	–	3.36	1.56	4.1
CCOC(=O)C1CC/C(=C(/C#N)C(=O)OC)N1 (stereo not drawn)	–	> 100	–	> 100	–	–	–	–	> 100	–	–	–	> 100	–	> 100	–	> 100	> 100	–	> 100
CC(=O)/C=C/C1=C(c2ccsc2)c2ccccc2CC1	25.9	61.1	–	–	17.8	23.6	58.1	17.6	37.1	18.8	44.4	15.3	31.3	19.3	49.7	–	–	37.1	–	–
O=P1(O)c2ccccc2CS(=O)(=O)Cc2ccccc21	–	> 100	–	> 100	–	–	–	–	> 100	–	> 100	–	> 100	–	> 100	–	–	> 100	–	> 100
C=C(C)[C@@H]1CC[C@]2(C)[C@H](C=CC3=C4C[C@@](C)(CO)CC[C@]4(C)CC[C@]32C)[C@@]1(C)CCCN	1.76	3.14	1.5	2.95	1.69	1.46	2.91	–	–	–	–	–	–	1.78	3.21	–	–	3.34	1.62	3.07
CN(NC(=O)CC(=O)NN(C)C(=S)c1ccc(Cl)cc1)C(=S)c1ccc(Cl)cc1	18.1	85.8	19.8	> 100	14.1	13.2	52	17.6	> 100	13.2	45.3	19.1	60.2	3.14	19.4	–	–	59.3	14.7	65.4
Cc1cc2c(cc1C)[n+]([O-])c(-c1c(Cl)cccc1Cl)c(N)[n+]2[O-]	–	> 100	–	> 100	–	–	92.3	–	> 100	–	74.4	–	28	–	> 100	–	–	> 100	–	–
CCOC(=O)C1(Cc2ccc3ccccc3c2)CCCCCN1 (stereo not drawn)	–	> 100	–	> 100	–	–	33.9	–	90.7	–	–	–	–	–	39	–	–	48.1	–	83.2
CCS/C(Nc1ccccc1)=C(\C#N)C(=O)N/N=C/c1ccc(Cl)cc1Cl	7.08	> 100	6.46	> 100	2.01	9.3	> 100	3.48	> 100	4	> 100	–	–	2.89	> 100	3.45	> 100	9.61	2.06	8.66
CC1(C)CC2CC(C)(CN2c2ncnc3ccc(Br)cc23)C1 (stereo not drawn)	14.1	27	10.9	22.8	11	0.195	11.6	0.134	11.2	3.32	16.2	13	29.3	3.34	16.3	–	–	22.9	11	23.6
CCOc1ccc(NC(=O)CCC(=O)NN)cc1	–	> 100	–	–	–	–	> 100	–	> 100	–	> 100	–	> 100	–	> 100	–	–	> 100	–	> 100
